From PubChem BioAssay AID1745844 (Carcinogenic Potency Database (CPDB), 2022)
Activity calls are given as the source filed them. How the calls were made is not given here.

Tested on: rodent lifetime carcinogenesis bioassay, tumor incidence TD50
Assay: chronic cancer bioassays in animals – CPDB, compiled studies (AID 1745844)

With `O=S(=O)(Oc1ccc(Cl)cc1)c1ccc(Cl)cc1` the carcinogen call (mouse, strain B6AKF1, females, oral dosing, site: any site (literature study), lesion: several types, types named in the paper, dosed 76 weeks, study length 76 weeks) was “negative (inactive)”, the carcinogen call (mouse, strain B6AKF1, females, oral dosing, site: liver, lesion: hepatoma, dosed 76 weeks, study length 76 weeks) was “negative (inactive)” and the carcinogen call (mouse, strain B6AKF1, females, oral dosing, site: lung, lesion: adenoma, dosed 76 weeks, study length 76 weeks) was “negative (inactive)”. The carcinogen call (mouse, strain B6AKF1, males, oral dosing, site: any site (literature study), lesion: several types, types named in the paper, dosed 76 weeks, study length 76 weeks) was “negative (inactive)”, the carcinogen call (mouse, strain B6AKF1, males, oral dosing, site: liver, lesion: hepatoma, dosed 76 weeks, study length 76 weeks) was “negative (inactive)” and the carcinogen call (mouse, strain B6AKF1, males, oral dosing, site: lung, lesion: adenoma, dosed 76 weeks, study length 76 weeks) was “negative (inactive)”. For the same molecule, the TD50 (mouse, strain B6C3F1, females, oral dosing, site: any site (literature study), lesion: several types, types named in the paper, dosed 76 weeks, study length 76 weeks) was 931 mg/kg/day (inactive), the TD50 (mouse, strain B6C3F1, females, oral dosing, site: liver, lesion: hepatoma, dosed 76 weeks, study length 76 weeks) was 931 mg/kg/day (inactive) and the carcinogen call (mouse, strain B6C3F1, females, oral dosing, site: lung, lesion: several types, types named in the paper, dosed 76 weeks, study length 76 weeks) was “negative (inactive)”. For the same molecule, the TD50 (mouse, strain B6C3F1, males, oral dosing, site: any site (literature study), lesion: several types, types named in the paper, dosed 76 weeks, study length 76 weeks) was 84.5 mg/kg/day (inactive), the TD50 (mouse, strain B6C3F1, males, oral dosing, site: liver, lesion: hepatoma, dosed 76 weeks, study length 76 weeks) was 422 mg/kg/day (inactive) and the TD50 (mouse, strain B6C3F1, males, oral dosing, site: lung, lesion: adenoma, dosed 76 weeks, study length 76 weeks) was 869 mg/kg/day (inactive).
Work on `Nc1ccc(-c2ccc(N)cc2)cc1` yielded a TD50 (mouse, strain C57BL/6JfC3Hf/Nctr x BALB/cStCrlfC3Hf/Nctr inter se, females, in drinking water, site: Harderian gland, lesion: adenoma, dosed 143 weeks, study length 143 weeks) of 41.1 mg/kg/day, a TD50 (mouse, strain C57BL/6JfC3Hf/Nctr x BALB/cStCrlfC3Hf/Nctr inter se, females, in drinking water, site: liver, lesion: hepatocellular adenoma, dosed 60 weeks, study length 60 weeks) of 30.2 mg/kg/day and a TD50 (mouse, strain C57BL/6JfC3Hf/Nctr x BALB/cStCrlfC3Hf/Nctr inter se, females, in drinking water, site: liver, lesion: hepatocellular adenoma, dosed 80 weeks, study length 80 weeks) of 78.7 mg/kg/day. It also gave a TD50 (mouse, strain C57BL/6JfC3Hf/Nctr x BALB/cStCrlfC3Hf/Nctr inter se, females, in drinking water, site: liver, lesion: hepatocellular carcinoma, dosed 60 weeks, study length 60 weeks) of 17.9 mg/kg/day, a TD50 (mouse, strain C57BL/6JfC3Hf/Nctr x BALB/cStCrlfC3Hf/Nctr inter se, females, in drinking water, site: liver, lesion: hepatocellular carcinoma, dosed 80 weeks, study length 80 weeks) of 9.6 mg/kg/day and a TD50 (mouse, strain C57BL/6JfC3Hf/Nctr x BALB/cStCrlfC3Hf/Nctr inter se, females, in drinking water, site: liver, lesion: hepatocellular carcinoma, dosed 143 weeks, study length 143 weeks) of 18.9 mg/kg/day. For the same molecule, the TD50 (mouse, strain C57BL/6JfC3Hf/Nctr x BALB/cStCrlfC3Hf/Nctr inter se, females, in drinking water, site: uterus, lesion: angioma, dosed 143 weeks, study length 143 weeks) was 402 mg/kg/day, the TD50 (mouse, strain C57BL/6JfC3Hf/Nctr x BALB/cStCrlfC3Hf/Nctr inter se, males, in drinking water, site: Harderian gland, lesion: adenoma, dosed 143 weeks, study length 143 weeks) was 208 mg/kg/day and the TD50 (mouse, strain C57BL/6JfC3Hf/Nctr x BALB/cStCrlfC3Hf/Nctr inter se, males, in drinking water, site: liver, lesion: hepatocellular adenoma, dosed 60 weeks, study length 60 weeks) was 67.7 mg/kg/day. For the same molecule, the TD50 (mouse, strain C57BL/6JfC3Hf/Nctr x BALB/cStCrlfC3Hf/Nctr inter se, males, in drinking water, site: liver, lesion: hepatocellular adenoma, dosed 80 weeks, study length 80 weeks) was 186 mg/kg/day, the TD50 (mouse, strain C57BL/6JfC3Hf/Nctr x BALB/cStCrlfC3Hf/Nctr inter se, males, in drinking water, site: liver, lesion: hepatocellular carcinoma, dosed 60 weeks, study length 60 weeks) was 74.3 mg/kg/day and the TD50 (mouse, strain C57BL/6JfC3Hf/Nctr x BALB/cStCrlfC3Hf/Nctr inter se, males, in drinking water, site: liver, lesion: hepatocellular carcinoma, dosed 80 weeks, study length 80 weeks) was 39 mg/kg/day. For the same molecule, the TD50 (mouse, strain C57BL/6JfC3Hf/Nctr x BALB/cStCrlfC3Hf/Nctr inter se, males, in drinking water, site: liver, lesion: hepatocellular carcinoma, dosed 143 weeks, study length 143 weeks) was 60.5 mg/kg/day, the TD50 (mouse, strain C57BL/6JfC3Hf/Nctr x BALB/cStCrlfC3Hf/Nctr, females, in drinking water, site: Harderian gland, lesion: adenoma, dosed 143 weeks, study length 143 weeks) was 51.7 mg/kg/day and the TD50 (mouse, strain C57BL/6JfC3Hf/Nctr x BALB/cStCrlfC3Hf/Nctr, females, in drinking water, site: liver, lesion: hepatocellular adenoma, dosed 60 weeks, study length 60 weeks) was 24.7 mg/kg/day. For the same molecule, the TD50 (mouse, strain C57BL/6JfC3Hf/Nctr x BALB/cStCrlfC3Hf/Nctr, females, in drinking water, site: liver, lesion: hepatocellular adenoma, dosed 79 weeks, study length 80 weeks) was 41.9 mg/kg/day, the TD50 (mouse, strain C57BL/6JfC3Hf/Nctr x BALB/cStCrlfC3Hf/Nctr, females, in drinking water, site: liver, lesion: hepatocellular carcinoma, dosed 60 weeks, study length 60 weeks) was 17.1 mg/kg/day and the TD50 (mouse, strain C57BL/6JfC3Hf/Nctr x BALB/cStCrlfC3Hf/Nctr, females, in drinking water, site: liver, lesion: hepatocellular carcinoma, dosed 79 weeks, study length 80 weeks) was 8.99 mg/kg/day. The TD50 (mouse, strain C57BL/6JfC3Hf/Nctr x BALB/cStCrlfC3Hf/Nctr, females, in drinking water, site: liver, lesion: hepatocellular carcinoma, dosed 143 weeks, study length 143 weeks) was 10.9 mg/kg/day, the TD50 (mouse, strain C57BL/6JfC3Hf/Nctr x BALB/cStCrlfC3Hf/Nctr, females, in drinking water, site: uterus, lesion: angioma, dosed 143 weeks, study length 143 weeks) was 335 mg/kg/day and the TD50 (mouse, strain C57BL/6JfC3Hf/Nctr x BALB/cStCrlfC3Hf/Nctr, males, in drinking water, site: Harderian gland, lesion: adenoma, dosed 143 weeks, study length 143 weeks) was 129 mg/kg/day. For the same molecule, the TD50 (mouse, strain C57BL/6JfC3Hf/Nctr x BALB/cStCrlfC3Hf/Nctr, males, in drinking water, site: liver, lesion: hepatocellular adenoma, dosed 60 weeks, study length 60 weeks) was 60.8 mg/kg/day, the TD50 (mouse, strain C57BL/6JfC3Hf/Nctr x BALB/cStCrlfC3Hf/Nctr, males, in drinking water, site: liver, lesion: hepatocellular adenoma, dosed 80 weeks, study length 80 weeks) was 94.8 mg/kg/day and the TD50 (mouse, strain C57BL/6JfC3Hf/Nctr x BALB/cStCrlfC3Hf/Nctr, males, in drinking water, site: liver, lesion: hepatocellular carcinoma, dosed 60 weeks, study length 60 weeks) was 97.5 mg/kg/day. It also gave a TD50 (mouse, strain C57BL/6JfC3Hf/Nctr x BALB/cStCrlfC3Hf/Nctr, males, in drinking water, site: liver, lesion: hepatocellular carcinoma, dosed 80 weeks, study length 80 weeks) of 33.2 mg/kg/day and a TD50 (mouse, strain C57BL/6JfC3Hf/Nctr x BALB/cStCrlfC3Hf/Nctr, males, in drinking water, site: liver, lesion: hepatocellular carcinoma, dosed 143 weeks, study length 143 weeks) of 31.2 mg/kg/day.
`CNCc1ccc(CSCCNC(=NCC(O)c2ccc(O)cc2)NS(C)(=O)=O)o1` (stereo unspecified) was tested, and the carcinogen call (rat, strain Jcl:SD, females, by gavage, site: liver, lesion: one or several types, types not named, dosed 52 weeks, study length 52 weeks) was “negative (inactive)”, the carcinogen call (rat, strain Jcl:SD, females, by gavage, site: liver, lesion: one or several types, types not named, dosed 52 weeks, study length 56 weeks) was “negative (inactive)” and the carcinogen call (rat, strain Jcl:SD, males, by gavage, site: liver, lesion: one or several types, types not named, dosed 52 weeks, study length 52 weeks) was “negative (inactive)”. The carcinogen call (rat, strain Jcl:SD, males, by gavage, site: liver, lesion: one or several types, types not named, dosed 52 weeks, study length 56 weeks) was “negative (inactive)”.
`Nc1ccc(Cl)cc1` was tested, and the carcinogen call (mouse, strain B6C3F1, females, by gavage, site: any site (literature study), lesion: several types, types named in the paper, dosed 103 weeks, study length 105 weeks) was “negative (inactive)”, the TD50 (mouse, strain B6C3F1, females, by gavage, site: liver, lesion: hepatocellular adenoma + hepatocellular carcinoma + neoplastic nodule, dosed 103 weeks, study length 105 weeks) was 176 mg/kg/day and the TD50 (mouse, strain B6C3F1, males, by gavage, site: all sites + liver, lesion: hemangiosarcoma + hepatocellular adenoma + hepatocellular carcinoma, dosed 103 weeks, study length 105 weeks) was 56 mg/kg/day. For the same molecule, the TD50 (mouse, strain B6C3F1, males, by gavage, site: all sites, lesion: hemangiosarcoma, dosed 103 weeks, study length 105 weeks) was 89.5 mg/kg/day, the TD50 (mouse, strain B6C3F1, males, by gavage, site: any site (literature study), lesion: several types, types named in the paper, dosed 103 weeks, study length 105 weeks) was 83.7 mg/kg/day and the TD50 (mouse, strain B6C3F1, males, by gavage, site: liver, lesion: hepatocellular adenoma + hepatocellular carcinoma + neoplastic nodule, dosed 103 weeks, study length 105 weeks) was 49.3 mg/kg/day. It also gave a TD50 (mouse, strain B6C3F1, males, by gavage, site: liver, lesion: hepatocellular adenoma + hepatocellular carcinoma, dosed 103 weeks, study length 105 weeks) of 49.3 mg/kg/day, a TD50 (mouse, strain B6C3F1, males, by gavage, site: liver, lesion: hepatocellular carcinoma, dosed 103 weeks, study length 105 weeks) of 33.8 mg/kg/day and a TD50 (mouse, strain B6C3F1, males, by gavage, site: lung, lesion: alveolar/bronchiolar adenoma + alveolar/bronchiolar carcinoma, dosed 103 weeks, study length 105 weeks) of 2780 mg/kg/day. For the same molecule, the TD50 (rat, strain Fischer 344, females, by gavage, site: adrenal medulla, lesion: pheochromocytoma, benign, dosed 103 weeks, study length 105 weeks) was 105 mg/kg/day, the TD50 (rat, strain Fischer 344, females, by gavage, site: any site (literature study), lesion: several types, types named in the paper, dosed 103 weeks, study length 105 weeks) was 145 mg/kg/day and the TD50 (rat, strain Fischer 344, females, by gavage, site: spleen, lesion: fibrosarcoma + osteosarcoma, dosed 103 weeks, study length 105 weeks) was 232 mg/kg/day. The TD50 (rat, strain Fischer 344, males, by gavage, site: adrenal medulla, lesion: pheochromocytoma benign, bilateral + pheochromocytoma, benign, dosed 103 weeks, study length 105 weeks) was 14.8 mg/kg/day, the TD50 (rat, strain Fischer 344, males, by gavage, site: adrenal medulla, lesion: pheochromocytoma benign, bilateral + pheochromocytoma, malignant + pheochromocytoma, benign, dosed 103 weeks, study length 105 weeks) was 13.3 mg/kg/day and the TD50 (rat, strain Fischer 344, males, by gavage, site: any site (literature study), lesion: several types, types named in the paper, dosed 103 weeks, study length 105 weeks) was 20.8 mg/kg/day. For the same molecule, the TD50 (rat, strain Fischer 344, males, by gavage, site: spleen, lesion: fibrosarcoma + fibroma, dosed 103 weeks, study length 105 weeks) was 16.9 mg/kg/day, the TD50 (rat, strain Fischer 344, males, by gavage, site: spleen, lesion: fibrosarcoma + hemangiosarcoma + osteosarcoma, dosed 103 weeks, study length 105 weeks) was 7.62 mg/kg/day and the TD50 (rat, strain Fischer 344, males, by gavage, site: spleen, lesion: fibrosarcoma + osteosarcoma, dosed 103 weeks, study length 105 weeks) was 7.9 mg/kg/day. The TD50 (rat, strain Fischer 344, males, by gavage, site: spleen, lesion: fibrosarcoma, dosed 103 weeks, study length 105 weeks) was 19 mg/kg/day, the TD50 (rat, strain Fischer 344, males, by gavage, site: spleen, lesion: hemangiosarcoma, dosed 103 weeks, study length 105 weeks) was 107 mg/kg/day and the TD50 (rat, strain Fischer 344, males, by gavage, site: spleen, lesion: osteosarcoma, dosed 103 weeks, study length 105 weeks) was 15.5 mg/kg/day.
`CCOC(=O)CC(SP(=O)(OC)OC)C(=O)OCC` (stereo unspecified) was tested, and the carcinogen call (mouse, strain B6C3F1, females, in feed, site: any site (literature study), lesion: several types, types named in the paper, dosed 103 weeks, study length 103 weeks) was “negative (inactive)”, the TD50 (mouse, strain B6C3F1, females, in feed, site: lung, lesion: alveolar/bronchiolar adenoma + alveolar/bronchiolar carcinoma, dosed 103 weeks, study length 103 weeks) was 2760 mg/kg/day and the TD50 (mouse, strain B6C3F1, males, in feed, site: any site (literature study), lesion: several types, types named in the paper, dosed 103 weeks, study length 103 weeks) was 472 mg/kg/day (inactive). The TD50 (mouse, strain B6C3F1, males, in feed, site: liver, lesion: hepatocellular adenoma + hepatocellular carcinoma + neoplastic nodule, dosed 103 weeks, study length 103 weeks) was 579 mg/kg/day, the TD50 (mouse, strain B6C3F1, males, in feed, site: lung, lesion: alveolar/bronchiolar adenoma + alveolar/bronchiolar carcinoma, dosed 103 weeks, study length 103 weeks) was 3230 mg/kg/day and the TD50 (rat, strain Fischer 344, females, in feed, site: thyroid gland, lesion: c-cell adenoma + c-cell carcinoma, dosed 103 weeks, study length 104 weeks) was 296 mg/kg/day (inactive). The carcinogen call (rat, strain Fischer 344, males, in feed, site: any site (literature study), lesion: several types, types named in the paper, dosed 103 weeks, study length 104 weeks) was “negative (inactive)” and the TD50 (rat, strain Fischer 344, males, in feed, site: liver, lesion: hepatocellular adenoma + hepatocellular carcinoma + neoplastic nodule, dosed 103 weeks, study length 104 weeks) was 1560 mg/kg/day.
